{"source": "patent US20140230091A1", "about": "“MODIFIED PLANTS WITH INCREASED OIL CONTENT” (BROOKHAVEN SCIENCE ASSOCIATES, LLC, priority 2011, published 2014)", "key": {"[1]": {"system": "fatty acid synthesis in B. napus cells", "assay": "14C-acetate / 14C-malonate labeling of lipids (feedback inhibition of fatty acid synthesis)", "type": "cell-based, Brassica napus", "protocol": "All radioisotopes were obtained from American Radiolabeled Chemicals (St. Louis, Mo. USA). Labeling was conducted on cells 5 days after subculturing with a culture density of ˜20 mg FW mL^−1 and that had medium refreshed 16 h prior. For labeling, three 1 mL aliquots of cells were carefully removed from each flask and were labeled with either 0.2 μCi of 1,2-^14C-acetate (50-60 mCi mmol^−1) or 2-^14C-malonate (40-60 mCi mmol^−1) for 15 minutes at 25° C. with occasional shaking. Haloxyfop (Sigma) was dissolved in DMSO and added 30 min prior to labeling. Lipids were extracted and separated by TLC as described above. Radioactivity was detected by phosphorimaging and was quantified using ImageQuant software (GE Healthcare, Piscataway, N.J., USA). Incorporation of label into individual fatty acids was determined by making FAMEs as described above, separating the methyl esters by TLC as described in (Koo, Fulda, Browse and Ohlrogge 2005, Plant J, 44, 620-632) and measuring radioactivity by phosphorimaging.\nFeedback inhibition of fatty acid synthesis was measured by the addition of a ^14C-acetate tracer. […] Sterol synthesis is dependent on acetyl-CoA and ATP, both of which are required for fatty acid synthesis. Therefore, if fatty acid synthesis is inhibited due to substrate limitation; so should be sterol biosynthesis. ^14C-acetate incorporation into sterols was unaffected by Tween-80 feeding, while incorporation into free fatty acids mirrored that of total lipids (FIG. 5), showing that the effect is restricted to fatty acid synthesis. […] Three hour time points were used for the remainder of this study to separate the period of maximum feedback inhibition from any lipid homeostatic mechanisms arising from the gross fatty acid compositional changes caused by long term Tween-80 feeding.\nPlants contain plastidic and cytosolic ACCase and F AS enzyme systems, both of which are capable of incorporating ^14C-acetate into fatty acids. Comparing the distribution of label in individual fatty acid species can therefore provide information on the relative contribution of these pathways. […] The degree to which ^14C-acetate incorporation is inhibited by haloxyfop is proportional to cytosolic elongation activity, whereas haloxyfop-resistant incorporation is from the de nova pathway inside the plastid.\nTo separate these possibilities, we exploited the fact that exogenous malonate can be converted to malonyl-CoA and used by FAS, bypassing the ACCase reaction (Kannangara et al. 1973, Plant Physiol, 52, 156-161). If ACCase is the only point of inhibition then the rate of ^14C-malonate labeling of de novo fatty acids should be the same in cultures with or without Tween-80. […] Therefore ACCase, and not F AS, is inhibited by Tween-80 feeding. When combined, the data from FIG. 6 unambiguously identify plastidic ACCase as the target of Tween-80 induced feedback inhibition."}, "[2]": {"system": "ACCase", "assay": "ACCase enzyme assay on crude cell extracts", "type": "biochemical, Brassica napus", "protocol": "All chemicals were obtained from Sigma and radioisotopes from American Radiolabeled Chemicals. ACCase activity was measured as the acetyl-CoA dependent incorporation of ^14C—NaHC03 into acid and stable products. Crude cell extracts were prepared by grinding fresh cells in 3 volumes (w/v) of 50 mM Tris-Cl, pH 7.5, 100 mM KCl, 5 mM MgCl2, 1 mM DTT, 0.1% TritonX-100, 10% glycerol, and plant protease inhibitor cocktail (Sigma). Homogenate was gently mixed on ice for 10 min and then centrifuged for 5 min at 3000 g. Desalting of extracts was done with PD-10 columns (GE Life Sciences). […] Reactions were initiated by the addition of 5 μlL cell extract and were stopped by the addition of 15 μL 12 N HCL. The contents were dried completely at 55° C. and the solids were resuspended in 30 μL water and counted by liquid scintillation spectroscopy. Minus acetyl-CoA controls were always included. Assays went for 30 min, except when measuring the effects of metabolites (10 min). Metabolites were added to the reaction immediately after cell extract to preserve labile thioester bonds. FFA stock solutions were made in ethanol and acyl-CoAs were suspended in water."}}, "note": "Marks after values point to notes of the source that are not given here.", "data": [{"substance": "Tween-80", "values": [{"measurement": "reduction of incorporation of 14C-acetate into fatty acids", "setting": "[1]; 3 hours of 10 mM Tween-80 feeding", "value": 40, "unit": "%"}, {"measurement": "incorporation of 14C-malonate into 16 and 18 carbon fatty acids", "setting": "[1]; 3 hours of 10 mM Tween-80 feeding, compared to 14C-acetate labeled controls", "value": "not inhibited"}, {"measurement": "14C-acetate incorporation into sterols", "setting": "[1]; Tween-80 feeding", "value": "unaffected"}, {"measurement": "reversibility of feedback inhibition after removal", "setting": "[1]; after removal of Tween-80 following 3 hour exposure to 10 mM", "value": "completely reversible"}, {"measurement": "haloxyfop-resistant 14C-acetate incorporation", "setting": "[1]; cultures with 10 mM Tween-80", "value": "reduced by about half"}, {"measurement": "Relative 14C-acetate incorporation (% control)", "setting": "[1]; relative to a control sample without any Tweens, mean of three repeats ± SD", "value": "50.9 ± 7.0", "unit": "% control"}, {"measurement": "reduction of rate of 14C-acetate incorporation into lipids", "setting": "[1]; three hours after addition of 10 mM Tween-80", "value": 40, "unit": "%"}, {"measurement": "ACCase activity", "setting": "[2]; crude extracts of cells fed 10 mM Tween-80 for three hours, mean of four repeats ± SD", "value": "1.73 ± 0.10^a nmol min^−1 mg^−1"}, {"measurement": "effect on ACCase activity", "setting": "[2]; included in assay of crude cell extract, FFA up to 10 μM", "value": "no effect"}]}]}
